Source: article PMC6136360, “Novel group of tyrosyl-DNA-phosphodiesterase 1 inhibitors based on disaccharide nucleosides as drug prototypes for anti-cancer therapy” (Journal of Enzyme Inhibition and Medicinal Chemistry, 2018)

These molecules were tested against T1, TDP1 (Homo sapiens, UniProt Q9NUW8) (assay: Real-time fluorescence detection of TDP1 activity, single-stranded FAM/BHQ biosensor). Conditions: 37 compared to 36; 42 compared to 41; ratio of IC50.
T1 construct: made in house; host or cells: E. coli
T1 sequence (Q9NUW8 whole entry): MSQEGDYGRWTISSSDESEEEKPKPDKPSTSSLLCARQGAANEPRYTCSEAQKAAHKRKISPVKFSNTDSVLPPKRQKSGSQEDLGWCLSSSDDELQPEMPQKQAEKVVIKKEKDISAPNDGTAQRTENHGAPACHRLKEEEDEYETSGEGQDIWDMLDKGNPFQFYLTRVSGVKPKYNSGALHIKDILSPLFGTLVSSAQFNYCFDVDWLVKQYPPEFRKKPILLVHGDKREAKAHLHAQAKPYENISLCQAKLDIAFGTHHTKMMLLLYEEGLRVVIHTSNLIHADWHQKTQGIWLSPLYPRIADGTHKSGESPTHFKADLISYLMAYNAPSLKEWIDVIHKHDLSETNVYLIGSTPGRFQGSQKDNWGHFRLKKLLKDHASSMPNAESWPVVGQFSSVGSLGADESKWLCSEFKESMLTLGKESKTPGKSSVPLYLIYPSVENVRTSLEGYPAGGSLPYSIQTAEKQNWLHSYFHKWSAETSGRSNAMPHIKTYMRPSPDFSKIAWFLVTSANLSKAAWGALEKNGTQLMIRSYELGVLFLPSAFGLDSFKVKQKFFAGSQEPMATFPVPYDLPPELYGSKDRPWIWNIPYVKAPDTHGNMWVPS
Type: biochemical
Description: Conditions and details for our real-time detection of TDP1 activity using the single-stranded and hairpin fluorescent biosensors were reported in our previous work[47]. Briefly, the approach consists in fluorescence intensity measurement of the reaction of quencher removal from the fluorophore-quencher coupled DNA-oligonucleotide catalysed by TDP1 in the presence of inhibitor and in the absence of it (the control samples contained 1% DMSO). Reaction mixtures (200 µl) contained TDP1 buffer (50 mM Tris-HCl, pH 8.0, 50 mM NaCl, 7 mM β-mercaptoethanol), oligonucleotide (50 nM substrate of TDP1), testable inhibitor and purified TDP1 (1.5 nM). The reactions were incubated at a constant temperature of 26 °C in a POLARstar OPTIMA fluorimeter, BMG LABTECH, GmbH, to measure fluorescence every 55 s (Ex485/Em520 nm) during the linear phase (here data from 0 to 8 min). The average values of half maximal inhibitory concentration (IC50) were determined using an eleven-point concentration response curve in three independent experiments and calculated using MARS Data Analysis 2.0 (BMG LABTECH).
To discover inhibitors of TDP1 we recently developed original single-stranded and hairpin fluorophore–quencher coupled DNA-biosensors for real-time measurement of TDP1 cleavage activity. The single-stranded substrate is a 16-mer oligonucleotide containing both 5′-FAM fluorophore donor and a quenching 3′-BHQ moiety (Figure 1(A)). When the quencher is removed by TDP1, the fluorescence intensity increases and can be measured by fluorimeter (TDP1 catalysed reaction on biosensor is shown in Figure 3(A). Fluorescence intensity declines in the presence of inhibitor, the resulting curves of the dependence of TDP1 residual activity as a function of the concentration of inhibitors were obtained using 4-parameter logistic regression fit, which was used to calculate IC50 values[47]^,[58].
For primary screening, the effect of a large group of disaccharide nucleosides and their hydrophobic derivatives on human recombinant TDP1 activity has been evaluated by fluorescent method on a single-stranded substrate described above.
In the case of `CC(C)(C)[Si](OC[C@H]1O[C@@H](n2ccc(NC(=O)c3ccccc3)nc2=O)C[C@@H]1O[C@@H]1O[C@H](COC(=O)c2ccccc2)[C@@H](OC(=O)c2ccccc2)[C@H]1OC(=O)c1ccccc1)(c1ccccc1)c1ccccc1` [Compound 37], the “Increase of efficiency of TDP1 inhibition by appending TBDPS at 5'-position” value is reported as “about 1.6 times”.
For `CC(C)(C)[Si](OC[C@H]1O[C@@H](n2cc(I)c(=O)[nH]c2=O)C[C@@H]1O[C@@H]1O[C@H](COC(=O)c2ccccc2)[C@@H](OC(=O)c2ccccc2)[C@H]1OC(=O)c1ccccc1)(c1ccccc1)c1ccccc1` [Compound 42], the “Increase of efficiency of TDP1 inhibition by appending TBDPS at 5'-position” value was “about 3.5 times”.

Same assay, conditions: single-stranded fluorescent biosensor 50 nM, TDP1 1.5 nM, 26 °C; read-out: IC50 (half-maximal inhibitory concentration) of TDP1 activity
Work on `O=C(Nc1ccn([C@@H]2O[C@H](CO)[C@@H](O)[C@H]2O[C@@H]2O[C@H](COC(=O)c3ccccc3)[C@@H](OC(=O)c3ccccc3)[C@H]2OC(=O)c2ccccc2)c(=O)n1)c1ccccc1` [Compound 13] yielded an IC50 of 2600 ± 200 nM.
For `CC(C)[Si]1(C(C)C)OC[C@H]2O[C@@H](n3ccc(NC(=O)c4ccccc4)nc3=O)[C@H](O[C@@H]3O[C@H](COC(=O)c4ccccc4)[C@@H](OC(=O)c4ccccc4)[C@H]3OC(=O)c3ccccc3)[C@@H]2O[Si](C(C)C)(C(C)C)O1` [Compound 16], the IC50 was 400 ± 100 nM.
Molecule `Cc1cn([C@H]2C[C@H](O[C@@H]3O[C@H](COC(=O)c4ccccc4)[C@@H](OC(=O)c4ccccc4)[C@H]3OC(=O)c3ccccc3)[C@@H](CO[C@@H]3O[C@H](COC(=O)c4ccccc4)[C@@H](OC(=O)c4ccccc4)[C@H]3OC(=O)c3ccccc3)O2)c(=O)[nH]c1=O` [Compound 33] has an IC50 of 1000 ± 100 nM.
`O=C(Nc1ccn([C@H]2C[C@H](O[C@@H]3O[C@H](COC(=O)c4ccccc4)[C@@H](OC(=O)c4ccccc4)[C@H]3OC(=O)c3ccccc3)[C@@H](CO)O2)c(=O)n1)c1ccccc1` [Compound 36] showed an IC50 of 1500 ± 200 nM.
For `CC(C)(C)[Si](OC[C@H]1O[C@@H](n2ccc(NC(=O)c3ccccc3)nc2=O)C[C@@H]1O[C@@H]1O[C@H](COC(=O)c2ccccc2)[C@@H](OC(=O)c2ccccc2)[C@H]1OC(=O)c1ccccc1)(c1ccccc1)c1ccccc1` [Compound 37], the IC50 was 900 ± 100 nM.
`CC(C)(C)[Si](OC[C@H]1O[C@@H](n2cc(I)c(=O)[nH]c2=O)C[C@@H]1O[C@@H]1O[C@H](COC(=O)c2ccccc2)[C@@H](OC(=O)c2ccccc2)[C@H]1OC(=O)c1ccccc1)(c1ccccc1)c1ccccc1` [Compound 42] showed an IC50 of 800 ± 100 nM.

Same assay, conditions: single-stranded fluorescent biosensor, primary screening
In the case of `Nc1ncnc2c1ncn2[C@@H]1O[C@H](CO)[C@@H](O)[C@H]1O[C@@H]1O[C@H](CO)[C@@H](O)[C@H]1O` [Compound 1], the “Inhibitory effect on TDP1 activity (in words)” value (“Inhibitory effect” for short) is reported as “not inhibited”.
`Cc1cn([C@@H]2O[C@H](CO)[C@@H](O)[C@H]2O[C@@H]2O[C@H](CO)[C@@H](O)[C@H]2O)c(=O)[nH]c1=O` [Compound 5] was tested, and the “Inhibitory effect” value was “not inhibited”.
`Nc1nc2c(ncn2[C@@H]2O[C@H](CO)[C@@H](O)[C@H]2O[C@@H]2O[C@H](CO)[C@@H](O)[C@H]2O)c(=O)[nH]1` [Compound 8] was tested, and the “Inhibitory effect” value was “not inhibited”.
For `Nc1ccn([C@@H]2O[C@H](CO)[C@@H](O)[C@H]2O[C@@H]2O[C@H](CO)[C@@H](O)[C@H]2O)c(=O)n1` [Compound 12], the “Inhibitory effect” value was “not inhibited”.
In the case of `O=c1ccn([C@@H]2O[C@H](CO)[C@@H](O)[C@H]2O[C@@H]2O[C@H](CO)[C@@H](O)[C@H]2O)c(=O)[nH]1` [Compound 17], the “Inhibitory effect” value is reported as “not inhibited”.
With `Nc1ncnc2c1ncn2[C@H]1C[C@H](O[C@@H]2O[C@H](CO)[C@@H](O)[C@H]2O)[C@@H](CO)O1` [Compound 22] the “Inhibitory effect” value was “not inhibited”.
For `Cc1cn([C@H]2C[C@H](O[C@@H]3O[C@H](COP(=O)([O-])[O-])[C@@H](O)[C@H]3O)[C@@H](CO)O2)c(=O)[nH]c1=O.[Na+].[Na+]` [Compound 25], the “Inhibitory effect” value was “does not lead to the noticeable inhibitory effect”.
`Cc1cn([C@H]2C[C@H](O[C@@H]3O[C@H](CO)[C@@H](O)[C@H]3O)[C@@H](COP(=O)(O)O)O2)c(=O)[nH]c1=O.N.N` [Compound 26] was tested, and the “Inhibitory effect” value was “does not lead to the noticeable inhibitory effect”.
`Cc1cn([C@H]2C[C@H](O[C@@H]3OC[C@@H](O)[C@@H](O)[C@H]3O)[C@@H](CO)O2)c(=O)[nH]c1=O` [Compound 27] was tested, and the “Inhibitory effect” value was “did not observe any inhibitory effect”.
For `CC(=O)O[C@H]1[C@H](O[C@H]2C[C@H](n3cc(C)c(=O)[nH]c3=O)O[C@@H]2CO)OC[C@@H](OC(C)=O)[C@H]1OC(C)=O` [Compound 28], the “Inhibitory effect” value was “did not observe any inhibitory effect”.
In the case of `Cc1cn([C@@H]2C[C@H](O[C@@H](C=O)O[C@@H](C=O)CO)[C@@H](CO)O2)c(=O)[nH]c1=O` [Compound 30], the “Inhibitory effect” value is reported as “did not lead to the noticeable inhibitory activity”.
In the case of `Nc1nc2c(ncn2[C@H]2C[C@H](O[C@@H]3O[C@H](CO)[C@@H](O)[C@H]3O)[C@@H](CO)O2)c(=O)[nH]1` [Compound 34], the “Inhibitory effect” value is reported as “not inhibited”.
`Nc1ccn([C@H]2C[C@H](O[C@@H]3O[C@H](CO)[C@@H](O)[C@H]3O)[C@@H](CO)O2)c(=O)n1` [Compound 35] was tested, and the “Inhibitory effect” value was “not inhibited”.
In the case of `O=c1ccn([C@H]2C[C@H](O[C@@H]3O[C@H](CO)[C@@H](O)[C@H]3O)[C@@H](CO)O2)c(=O)[nH]1` [Compound 38], the “Inhibitory effect” value is reported as “not inhibited”.
For `O=c1[nH]c(=O)n([C@H]2C[C@H](O[C@@H]3OC[C@@H](O)[C@@H](O)[C@H]3O)[C@@H](CO)O2)cc1I` [Compound 40], the “Inhibitory effect” value was “did not observe any inhibitory effect”.
With `Nc1ncnc2c1ncn2[C@H]1C[C@H](O)[C@@H](CO[C@@H]2O[C@H](CO)[C@@H](O)[C@H]2O)O1` [Compound 43] the “Inhibitory effect” value was “not inhibited”.
`Cc1cn([C@H]2C[C@H](O)[C@@H](CO[C@@H]3O[C@H](CO)[C@@H](O)[C@H]3O)O2)c(=O)[nH]c1=O` [Compound 44] was tested, and the “Inhibitory effect” value was “not inhibited”.
In the case of `Nc1nc2c(ncn2[C@H]2C[C@H](O)[C@@H](CO[C@@H]3O[C@H](CO)[C@@H](O)[C@H]3O)O2)c(=O)[nH]1` [Compound 45], the “Inhibitory effect” value is reported as “weak inhibitory effect”.
For `Nc1ccn([C@H]2C[C@H](O)[C@@H](CO[C@@H]3O[C@H](CO)[C@@H](O)[C@H]3O)O2)c(=O)n1` [Compound 46], the “Inhibitory effect” value was “not inhibited”.
For `O=c1ccn([C@H]2C[C@H](O)[C@@H](CO[C@@H]3O[C@H](CO)[C@@H](O)[C@H]3O)O2)c(=O)[nH]1` [Compound 47], the “Inhibitory effect” value was “weak inhibitory effect”.
